Reference: patent publication US20100248390A1, “COMPOSITIONS AND METHODS FOR IDENTIFYING LIGANDS OF ODORANT RECEPTORS” (DUKE UNIVERSITY, priority 2009, published 2010)

Legend:
[1] = target: T1, mouse odorant receptors (ORs) (Mus musculus, UniProt P23275); assay: CRE-luciferase assay of odorant receptor activation (Dual-Glo, Hana3A cells, RTP1S), dose-response EC50; format: cell-based; conditions: receptor MOR256-17; read-out: log EC50 of odorant at MOR256-17 (0 = no response) (converted)
T1 construct: OR open reading frames were amplified from genomic DNA; expressed in transfected cells; host or cells: Hana3A cells, co-transfected with RTP1S, CRE-luciferase and pRL-SV40
T1 sequence (P23275 1-312): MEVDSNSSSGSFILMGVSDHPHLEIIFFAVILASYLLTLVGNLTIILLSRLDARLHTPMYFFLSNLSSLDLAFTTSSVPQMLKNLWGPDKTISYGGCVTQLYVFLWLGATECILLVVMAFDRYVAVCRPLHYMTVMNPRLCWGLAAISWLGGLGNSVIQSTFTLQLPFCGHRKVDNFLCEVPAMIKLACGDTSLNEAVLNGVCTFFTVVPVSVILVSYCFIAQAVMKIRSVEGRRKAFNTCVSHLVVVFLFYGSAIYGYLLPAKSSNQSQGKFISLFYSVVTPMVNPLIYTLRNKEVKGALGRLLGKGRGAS

[2] = target: T2, mouse odorant receptors (ORs) (Mus musculus, UniProt Q8VG42); assay: as above; format: cell-based; conditions: receptor MOR204-6; for log EC50, MOR204-6: 0 = no response
T2 construct: OR open reading frames were amplified from genomic DNA; expressed in transfected cells; host or cells: Hana3A cells, co-transfected with RTP1S, CRE-luciferase and pRL-SV40
T2 sequence (Q8VG42 1-310): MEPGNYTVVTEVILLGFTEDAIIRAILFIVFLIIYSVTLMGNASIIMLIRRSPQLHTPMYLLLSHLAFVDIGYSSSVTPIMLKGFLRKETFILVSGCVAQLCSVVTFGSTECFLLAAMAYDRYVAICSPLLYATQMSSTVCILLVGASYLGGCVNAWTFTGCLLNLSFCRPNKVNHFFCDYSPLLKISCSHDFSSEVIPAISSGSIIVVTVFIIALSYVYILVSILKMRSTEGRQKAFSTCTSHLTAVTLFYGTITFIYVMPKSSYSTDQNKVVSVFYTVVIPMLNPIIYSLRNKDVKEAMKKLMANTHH

Compound	EC50 [1]	log EC50, MOR204-6 [2]	other results
CCCCCCCCC(=O)O [Nonanoic acid]	20.2 µM	–	–
C=C(C)[C@H]1CC=C(C)C(=O)C1 [(+)-Carvone]	–	−3.85	–
C=C(C)C1CC=C(C)C(=O)C1 (single isomer, unassigned; (-)) [(−)-Carvone]	–	−3.625	–
CCCCCCCCS [Octanethiol]	40.9 µM	–	–
O=c1ccc2ccccc2o1 [Coumarin]	–	–	EC50 ([2]; read-out: log EC50 (Table 4 value), MOR204-6 (converted)): 7.96 µM
CCCCCCCC(=O)O [Octanoic Acid]	38.9 µM	–	–
